Drawing on patent US12054447B2, “PCNA inhibitors” (City of Hope, priority 2015, dated 2024), this text covers IC50 for 13 compounds.

For orientation: IC50 means the concentration that gives 50% inhibition.

Molecules are shown by their SMILES.

The subject of one assay is SK-N-AS. As to the kind of experiment: Cell growth, CellTitor-Glo assay, 72 h. The assay is classed as cell-based. To be noted: Homo sapiens. As to the method:
(§1) The human NB cell lines, SK-N-DZ, SK-N-BE(2)c, SK-N-AS, and LAN-5 obtained from the American Type Culture Collection (Rockville, MD), were cultured in DMEM with 10% fetal bovine serum (FBS), 100 units/ml penicillin, and 100 μg/ml streptomycin in the presence of 5% CO2 at 37° C. Human PBMCs from a healthy donor were purchased from Sanguine BioSciences (Valencia, CA) and grown in RPMI1640 with 10% FBS, 100 units/ml penicillin, 100 μg/ml streptomycin, and 10 ng/ml IL-2 in the presence of 5% CO2 at 37° C. Human embryonic progenitor cell line 7SM0032 was acquired from Millipore (Billerica, MA) and grown in the hEPM-1 Media Kit purchased from the same company. The plasmid pCBASce expresses the rare cutting I-SceI meganuclease. The U20S-derived cell lines, DR-GFP and EJ5-GFP, each contain a stably transfected reporter gene for DSB repair mediated by HR and end joining (EJ), respectively. These cell lines were cultured in DMEM medium with 10% FBS at 37° C. in the presence of 5% CO2.
(§2) To measure the effect of the compounds on cell growth, cells were seeded at 3×10^4/ml into a 96-well plate. Once attached, cells were treated with various concentrations of AOH1160 for 72 h. Cell growth was measured by the CellTitor-Glo assay (Promega, Madison, WI) according to the manufacturer's instructions. To measure apoptosis, cells were seeded at 1×10^5/ml onto a chamber slide. Once attached, cells were treated with the 500 nM AOH1160 for 24 h. Cells were fixed and analyzed by a TUNEL assay using the TMR red in situ cell death detection kit (Roche Diagnostics, Indianapolis, IN).

The test system of another assay is neuroblastoma cell lines. Briefly: IC50 in Table 3, cell line not stated. The assay is classed as cell-based. To be noted: Homo sapiens. The text has this: In addition numerous analogs related to AOH1160 were screened in numerous neuroblastoma cell lines for anti-cancer activity (Table 2). AOH1160 was screened for anti-cancer activity in additional cancer cell lines besides neuroblastoma (Table 3).

Another assay concerns SK-N-DZ. Briefly: Cell growth, CellTitor-Glo assay, 72 h. Type of assay: cell-based. To be noted: Homo sapiens. How it is done:
as §1, §2

Another assay relates to SK-N-BE(2)c. As to the kind of experiment: Cell growth, CellTitor-Glo assay, 72 h. The assay is classed as cell-based. To be noted: Homo sapiens. As to the method:
as §1, §2

A further assay has as its system PBMC. Briefly: Cell growth, CellTitor-Glo assay, 72 h. Type of assay: cell-based, human. How it is done:
as §1, §2

Another assay relates to 7SM0032. Briefly: Cell growth, CellTitor-Glo assay, 72 h. Type of assay: cell-based, human. To be noted: human neural crest stem cells (7SM0032). As to the method: as §1, §2
For a further assay, the system named is NB cell lines. Briefly: Cell viability assay on NB cell lines. Type of assay: cell-based, human. To be noted: Homo sapiens; multiple NB cell lines; read-out: IC50 range over NB cell lines. As to the method:
as §2
To identify small molecule compounds that target the PCNA and FEN1 interface, we started with known crystal structures of the PCNA/FEN1 complex that are available from the RCSB protein database. To improve the likelihood of identifying novel small molecules that specifically target caPCNA, we focused our virtual screen on the binding pocket in PCNA delineated by residues L126 and Y133 and screened databases consisting of more than 6.8 million chemical structures available at the AMRI. A set of 57 compounds identified by the virtual screen was acquired and further tested in a cell viability assay. A compound (AOH39) was selected for further development due to its anti-cancer activity and selectivity.

`O=C(CNC(=O)c1cncc2ccccc12)Nc1cccc(Oc2ccncc2)c1` [#1176] returned an IC50 in the assay on SK-N-AS of over 30 µM.

In the case of `O=C(CNC(=O)c1cccc2ccccc12)Nc1ccc(Oc2ccncc2)cc1` [#1178], the IC50 in the assay with neuroblastoma cell lines and in the assay on SK-N-AS was 1.1 µM each time.

For `O=C(CNC(=O)c1nccc2ccccc12)Nc1ccc(Oc2ccncc2)cc1` [AOH1179], the IC50 with neuroblastoma cell lines and in the assay with SK-N-AS was over 30 µM throughout.

As for `O=C(CNC(=O)c1cncc2ccccc12)Nc1ccccc1Oc1ccccc1` [#1175], the IC50 with neuroblastoma cell lines and with SK-N-AS was over 30 µM in each case.

In the case of `O=C(CNC(=O)c1cncc2ccccc12)Nc1ccccc1Oc1ccncc1` [#1177], the IC50 with neuroblastoma cell lines is over 30 µM.

`O=C(CNC(=O)c1cccc2ccccc12)Nc1ccc(Cl)cc1Oc1ccccc1` [PCNA4]: the IC50 in the assay on SK-N-AS is 0.185 µM; with SK-N-DZ it was 0.447 µM; in the assay on SK-N-BE(2)c it was 0.5 µM; with PBMC (Homo sapiens, PBMC (non-malignant)), over 20 µM.

In the case of `O=C(CNC(=O)c1cccc2ccccc12)Nc1ccccc1Cc1ccccc1` [AOH39, N-(2-((2-benzylphenyl)amino)-2-oxoethyl)-1-naphthamide, reference compound], the IC50 in the assay with PBMC (human peripheral blood mononuclear cells (PBMC)) is 15.4 µM; in the assay on 7SM0032, about 100 µM; with NB cell lines, 1.3 to 2.8 µM.

Take `O=C(CNC(=O)c1cncc2ccccc12)Nc1ccc(Oc2ccncc2)cc1` [AOH1180]: the IC50 in the assay with neuroblastoma cell lines and in the assay on SK-N-AS was over 30 µM throughout.

In the case of `O=C(CNC(=O)c1nccc2ccccc12)Nc1ccccc1Oc1ccccc1` [#1165], the IC50 with neuroblastoma cell lines and in the assay with SK-N-AS was 35 µM throughout.

As to `O=C(CNC(=O)c1cccc2ccccc12)Nc1ccccc1Oc1ccncc1` [#1162], the IC50 in the assay on neuroblastoma cell lines and with SK-N-AS was over 50 µM in each case.

As for `O=C(CNC(=O)c1cccc2ccccc12)Nc1cccc(Oc2ccncc2)c1` [#1161], the half-inhibitory concentration (IC50) in the assay on neuroblastoma cell lines and in the assay on SK-N-AS was 21.6 µM each time.

As to `O=C(CNC(=O)c1nccc2ccccc12)Nc1cccc(Oc2ccncc2)c1` [#1166], the values for the IC50 with neuroblastoma cell lines and with SK-N-AS were 34 µM and over 30 µM, respectively.

Turning to `O=C(CNC(=O)c1nccc2ccccc12)Nc1ccccc1Oc1ccncc1` [#1167], in the assay on neuroblastoma cell lines, the IC50 was found to be 4.2 µM.
